In US12686673B2 (Blueprint Medicines Corporation, priority 2020, dated 2026) one finds GI50 and IC50 data, which are given here for 21 molecules.

Each structure is given as a SMILES string.

The target of experiment [1] is HER2 (A775_G776insYVMA) expressing Ba/F3 stable cell line (Homo sapiens, UniProt P04626, DUP772-775, cells depend on it). Description: Cellular proliferation (Alamar Blue) assay, HER2 A775_G776insYVMA Ba/F3. The class given is cell-based. Particulars: 72 hr, read-out: YVMA IC50. The method, then: • 1. EGFR(D770_N771insSVD) expressing Ba/F3 stable cell line • 2. EGFR (A767_dupASV) expressing Ba/F3 stable cell line • 3. A431 cells • 4. EGFR (H773insNPH) expressing Ba/F3 stable cell line • 5. HER2 (A775_G776insYVMA) expressing Ba/F3 stable cell line Assay Procedure: • 1. Seed cells at 5000 for A431 and 15,000 cells for Ba/F3 in 100 μL/well in complete media (for A431: DMEM with […] and for Ba/F3 cells: RPMI with 10% FBS) in 96-well tissue culture plate. Leave outer wells without cells for background measurements. Incubate at 37 degree Celsius in […] humidified incubator for 16-18 hours. • 2. Add 0.025 ml of 5× concentration compound dilution or DMSO control. Final compound concentration range is 10-0.0005 μM prepared in 3-fold serial dilutions. Incubate for 72 hr at 37 degree Celsius in […] humidified incubator. • 3. Add 0.0125 ml Alamar Blue™ reagent to each well with multi-channel pipette and tap gently on each side of the plate to mix. Incubate for 3 hours at 37 degree Celsius in 5% CO2 humidified incubator. • 4. […] Data analysis was performed using XLfit 5.5.0.5.
Sequence of HER2 (A775_G776insYVMA) expressing Ba/F3 stable cell line (P04626 with tags, fused parts or gaps DUP772-775): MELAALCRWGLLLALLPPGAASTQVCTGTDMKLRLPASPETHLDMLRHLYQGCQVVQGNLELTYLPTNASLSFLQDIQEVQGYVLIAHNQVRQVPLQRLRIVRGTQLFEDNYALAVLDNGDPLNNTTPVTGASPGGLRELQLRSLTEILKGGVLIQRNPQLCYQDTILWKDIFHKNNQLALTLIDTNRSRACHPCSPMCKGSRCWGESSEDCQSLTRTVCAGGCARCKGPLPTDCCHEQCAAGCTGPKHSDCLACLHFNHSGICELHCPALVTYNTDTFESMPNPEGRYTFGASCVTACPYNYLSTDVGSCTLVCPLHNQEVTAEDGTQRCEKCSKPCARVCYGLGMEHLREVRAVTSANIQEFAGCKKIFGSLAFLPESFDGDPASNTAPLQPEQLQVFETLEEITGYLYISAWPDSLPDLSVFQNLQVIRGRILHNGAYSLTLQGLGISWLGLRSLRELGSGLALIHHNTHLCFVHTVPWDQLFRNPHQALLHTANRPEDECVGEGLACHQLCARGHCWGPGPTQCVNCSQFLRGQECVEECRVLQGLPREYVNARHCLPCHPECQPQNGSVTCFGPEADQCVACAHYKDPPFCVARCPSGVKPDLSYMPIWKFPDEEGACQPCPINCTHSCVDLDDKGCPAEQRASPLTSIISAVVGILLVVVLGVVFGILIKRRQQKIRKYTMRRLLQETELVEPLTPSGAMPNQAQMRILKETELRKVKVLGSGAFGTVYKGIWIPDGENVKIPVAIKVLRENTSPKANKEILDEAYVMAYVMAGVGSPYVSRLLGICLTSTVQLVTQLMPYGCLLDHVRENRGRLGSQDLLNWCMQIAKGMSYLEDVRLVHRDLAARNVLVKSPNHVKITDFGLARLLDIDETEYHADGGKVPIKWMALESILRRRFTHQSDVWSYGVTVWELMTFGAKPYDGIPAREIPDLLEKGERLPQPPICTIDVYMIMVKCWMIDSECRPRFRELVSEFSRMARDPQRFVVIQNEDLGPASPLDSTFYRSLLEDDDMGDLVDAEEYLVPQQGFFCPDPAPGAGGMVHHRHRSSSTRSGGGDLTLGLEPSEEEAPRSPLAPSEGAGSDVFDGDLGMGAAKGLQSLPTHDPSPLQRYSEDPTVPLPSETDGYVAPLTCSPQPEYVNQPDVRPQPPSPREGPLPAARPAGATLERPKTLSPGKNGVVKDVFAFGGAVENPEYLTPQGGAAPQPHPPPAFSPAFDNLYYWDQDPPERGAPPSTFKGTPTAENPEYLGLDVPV
A general note: The colour change of resazurin is a common sign of viable cells or microbes.

Experiment [2] deals with A431 cells. The experiment can be described thus: Cellular proliferation (Alamar Blue) assay, A431. As to conditions: Homo sapiens, A-431; A431 cells, 72 hr, Alamar Blue; read-out: A431 IC50. Type of experiment: cell-based.

On to `C=CC(=O)Nc1ccc(F)c(Nc2nc(Nc3cnn(C)c3)ncc2-c2ccccc2Cl)c1` [Compound 150, N-(3-((5-(2-chlorophenyl)-2-((1-methyl-1H-pyrazol-4-yl)amino)pyrimidin-4-yl)amino)-4-fluorophenyl)acrylamide 2,2,2-trifluoroacetate], for which, in experiment [1], the GI50 worked out at 1810 nM. Still for that read-out and setting: in the case of `C=CC(=O)Nc1ccc(F)c(Nc2nc(Nc3cnn(C)c3)ncc2C2CCOCC2)c1` [Compound 255, N-(4-fluoro-3-((2-((1-methyl-1H-pyrazol-4-yl)amino)-5-(tetrahydro-2H-pyran-4-yl)pyrimidin-4-yl)amino)phenyl)acrylamide] it was greater than 10000 nM.

As for `C=CC(=O)Nc1ccc(F)c(Nc2nc(Nc3cnn(C)c3)ncc2C2=CCOC2)c1` [Compound 261, N-(3-{[5-(2,5-dihydrofuran-3-yl)-2-[(1-methyl-1H-pyrazol-4-yl)amino]pyrimidin-4-yl]amino}-4-fluorophenyl) prop-2-enamide], the IC50 in experiment [2] came out at 195 nM. In experiment [1], the GI50 stood at 222 nM. As for `C=CC(=O)Nc1ccc(F)c(Nc2nc(Nc3cnn(C)c3)ncc2-c2cccc3ncccc23)c1` [Compound 262, N-(4-fluoro-3-((2-((1-methyl-1H-pyrazol-4-yl)amino)-5-(quinolin-5-yl)pyrimidin-4-yl)amino)phenyl)acrylamide], in experiment [1], the GI50 stood at 4430 nM.

For `C=CC(=O)Nc1ccc(F)c(Nc2nc(Nc3cn(C)nc3Cl)ncc2-c2ccccc2F)c1` [Compound 264, N-(3-((2-((3-chloro-1-methyl-1H-pyrazol-4-yl)amino)-5-(2-fluorophenyl)pyrimidin-4-yl)amino)-4-fluorophenyl)acrylamide], in experiment [2], the IC50 was 145 nM. In addition, in experiment [1], the GI50 was 465 nM. The corresponding values for `C=CC(=O)Nc1ccc(F)c(Nc2nc(Nc3cnn(C)c3)ncc2C2CCOC2)c1` (stereo not drawn) [Compound 266, N-{4-fluoro-3-([2-[(1-methyl-1H-pyrazol-4-yl)amino]-5-(oxolan-3-yl)pyrimidin-4-yl}amino)phenyl] prop-2-enamide] are 768 nM and 1380 nM. The like results for `C=CC(=O)Nc1ccc(F)c(Nc2nc(Nc3cnn(C)c3)ncc2-c2ccccc2N(C)C)c1` [Compound 267, N-(3-((5-(2-(dimethylamino)phenyl)-2-((1-methyl-1H-pyrazol-4-yl)amino)pyrimidin-4-yl)amino)-4-fluorophenyl)acrylamide] were, in that order, 5800 nM and greater than 10000 nM. Regarding `C=CC(=O)Nc1ccc(F)c(Nc2nc(Nc3cnn(C)c3)ncc2-c2cccc3ccncc23)c1` [Compound 268, N-(4-fluoro-3-((5-(isoquinolin-8-yl)-2-((1-methyl-1H-pyrazol-4-yl)amino)pyrimidin-4-yl)amino)phenyl)acrylamide], the IC50 in experiment [2] worked out at 3440 nM. For the same molecule, the GI50 in experiment [1] was greater than 10000 nM. The like results for `C=CC(=O)Nc1ccc(F)c(Nc2nc(Nc3cnn(C)c3)ncc2N2CCCCC2)c1` [Compound 269, N-(4-fluoro-3-((2-((1-methyl-1H-pyrazol-4-yl)amino)-5-(piperidin-1-yl)pyrimidin-4-yl)amino)phenyl)acrylamide] were, in that order, 5610 nM and greater than 10000 nM.

For the molecule `C=CC(=O)Nc1ccc(F)c(Nc2nc(Nc3cnn(C)c3)ncc2-c2ccc3c(cnn3C)c2)c1` [Compound 270, N-(4-fluoro-3-((5-(1-methyl-1H-indazol-5-yl)-2-((1-methyl-1H-pyrazol-4-yl)amino)pyrimidin-4-yl)amino)phenyl)acrylamide], the IC50 in experiment [2] came to 190 nM. Also, in experiment [1], the GI50 was 985 nM.

With `C=CC(=O)Nc1ccc(F)c(Nc2nc(Nc3cnn(C(C)(C)C#N)c3)ncc2Br)c1` [Compound 271, N-(3-((5-bromo-2-((1-(2-cyanopropan-2-yl)-1H-pyrazol-4-yl)amino)pyrimidin-4-yl)amino)-4-fluorophenyl)acrylamide], in experiment [2], the IC50 was determined as 2960 nM. Further, the GI50 in experiment [1] came to 2160 nM. The corresponding values for `C=CC(=O)Nc1ccc(F)c(Nc2nc(Nc3cnn(C(C)(C)C#N)c3)ncc2C2=CCOC2)c1` [Compound 272, N-(3-((2-((1-(2-cyanopropan-2-yl)-1H-pyrazol-4-yl)amino)-5-(2,5-dihydrofuran-3-yl)pyrimidin-4-yl)amino)-4-fluorophenyl)acrylamide] are 1010 nM and 602 nM. The corresponding values for `C=CC(=O)Nc1ccc(F)c(Nc2nc(Nc3cnn(CC(C)(C)O)c3)ncc2Br)c1` [Compound 273, N-(3-((5-bromo-2-((1-(2-hydroxy-2-methylpropyl)-1H-pyrazol-4-yl)amino)pyrimidin-4-yl)amino)-4-fluorophenyl)acrylamide] are 3930 nM and 2630 nM. The corresponding values for `C=CC(=O)Nc1cccc(Nc2ncc(Cl)c(Nc3cnn(C)c3)n2)c1` [Compound 275, N-(3-((5-chloro-4-((1-methyl-1H-pyrazol-4-yl)amino)pyrimidin-2-yl)amino)phenyl)acrylamide] are 1430 nM and 3050 nM. As to `C=CC(=O)Nc1ccc(F)c(Nc2nc(Nc3cnn(C)c3)ncc2-c2ccc(OCc3cccc(F)c3)cc2)c1` [Compound 276, N-(4-fluoro-3-((5-(4-((3-fluorobenzyl)oxy)phenyl)-2-((1-methyl-1H-pyrazol-4-yl)amino)pyrimidin-4-yl)amino)phenyl)acrylamide], the IC50 in experiment [2] was determined as 278 nM. Besides, the GI50 in experiment [1] came to 861 nM. The like results for `C=CC(=O)Nc1ccc(F)c(Nc2nc(Nc3cnn(C)c3)ncc2-c2ccc3[nH]ncc3c2)c1` [Compound 277, N-(3-((5-(1H-indazol-5-yl)-2-((1-methyl-1H-pyrazol-4-yl)amino)pyrimidin-4-yl)amino)-4-fluorophenyl)acrylamide] were, in that order, 293 nM and 645 nM. As to `C=CC(=O)Nc1ccc(F)c(Nc2nc(Nc3cnn(C)c3)ncc2-c2ccn3ncnc3c2)c1` [Compound 278, N-(3-((5-([1,2,4]triazolo[1,5-a]pyridin-7-yl)-2-((1-methyl-1H-pyrazol-4-yl)amino)pyrimidin-4-yl)amino)-4-fluorophenyl)acrylamide], the IC50 in experiment [2] turned out to be 73 nM. Moreover, the GI50 in experiment [1] was 444 nM. Consider `C=CC(=O)Nc1cccc(Nc2nc(Nc3cnn(C)c3)ncc2F)c1` [Compound 280, N-[3-({5-fluoro-2-[(1-methyl-1H-pyrazol-4-yl)amino]pyrimidin-4-yl}amino)phenyl]prop-2-enamide], for which, in experiment [2], the IC50 was determined as 520 nM. Besides, in experiment [1], the GI50 was found to be 5160 nM. The like results for `C=CC(=O)Nc1cc(Br)cc(Nc2nc(Nc3cnn(C)c3)ncc2Cl)c1` [Compound 283, N-[3-bromo-5-({5-chloro-2-[(1-methyl-1H-pyrazol-4-yl)amino]pyrimidin-4-yl}amino)phenyl]prop-2-enamide] were, in that order, 617 nM and 1480 nM. With `C=CC(=O)Nc1ccc(F)c(Nc2nc(Nc3cnn(CCN(C)C)c3)ncc2Cl)c1` [Compound 284, N-(3-((5-chloro-2-((1-(2-(dimethylamino)ethyl)-1H-pyrazol-4-yl)amino)pyrimidin-4-yl)amino)-4-fluorophenyl)acrylamide], the IC50 in experiment [2] came out at 536 nM. For the same molecule, in experiment [1], the GI50 worked out at 874 nM.

Turning to `C=CC(=O)Nc1ccc(F)c(Nc2nc(Nc3ccc(CN(C)C)cc3)ncc2Cl)c1` [Compound 287, N-(3-((5-chloro-2-((4-((dimethylamino)methyl)phenyl)amino)pyrimidin-4-yl)amino)-4-fluorophenyl)acrylamide], in experiment [2], the IC50 is 473 nM. Moreover, the GI50 in experiment [1] stood at 764 nM.

Usually IC50 stands for the concentration at which inhibition is half-maximal.
